Our source for the DC50 and Dmax values is patent US20240327381A1, “Compounds and Compositions for Selective Degradation of Engineered Proteins” (Celgene Corporation, priority 2023, published 2024).

The target in experiment [1] is T1, IKZF1 ZNF2_ZNF3 Q1F degron-tagged CD19 CAR (Homo sapiens, UniProt Q13422, Q146F).
T1 construct: ZNF2_ZNF3 Q1F degron (GERPFFCNQCGASFTQKGNLLRHIKLHSGEKPFKCHLCNYACRRRDALTGHLRTHS); fused on or other part: anti-CD19 scFv, CD28 transmembrane domain, 4-1BB costimulatory domain, CD3 zeta signaling domain (the CAR that carries the degron), and Nluc
Nature of the experiment: Degradation of Q1F degron-tagged CD19 CAR in Jurkat cells (flow cytometry of CAR levels). The experiment is classed as cell-based. Particulars: for DC50: Jurkat cells expressing CD19 CAR tagged with IKZF1 ZNF2_ZNF3 Q1F, 18 hours at 37° C., CAR levels normalized to untreated cells, read-out: Q1F Jurkat IC50; for Dmax: Ymax is the % protein degraded, Jurkat cells expressing Q1F degron-tagged CD19 CAR, 18 hours, read-out: Q1F Jurkat-YMax. The source says: Q1F degron-targeting compounds were screened in Jurkat cells engineered to express a IKZF1 ZNF2_ZNF3 Q1F. The cell line was generated with lentiviral vectors containing CD19 CARs tagged with IKZF1 ZNF2_ZNF3 QIF Nluc, which were transduced into Jurkat cells. The CD19 CAR comprised an anti-CD19 scFv, a CD28 transmembrane domain, a 4-1BB costimulatory domain, a CD3ζ signaling domain, and a ZNF2_ZNF3 Q1F degron (GERPFFCNQCGASFTQKGNLLRHIKLHSGEKPFKCHLCNYACRRRDALTGHLRTHS; SEQ ID NO: 1; Q1F substitution underlined). Transduced cells were treated with a titration of each small molecule or no drug and then incubated at 37° C. for 18 hours. Cells were washed and stained with appropriate staining reagent to measure CAR levels. The cells were incubated at 4° C. in the staining reagents for 20 mins and then washed 3 times before being read on the flow cytometer. CAR levels were normalized to cells that had not been treated with drug. EC50 and Ymin values were calculated using the resulting titration curve. This identified small molecules that potently degraded the Q1F degron-tagged CARs (Table 1).
(§1) To determine the EC50 value of a compound for the degradation of a given substrate (concentration of compound that achieves half the maximum degradation observed), a four-parameter logistic model (sigmoidal dose-response model) (FIT=(A+{(B−A)/1+[(C/x)D]})) where C is the inflection point (EC50), D is the […], and A and B are the low and high limits of the fit, respectively) was used. All substrate degradation curves were processed and evaluated using ActivityBase (IDBS), a data analysis software package. Ymax is the % protein degraded (Ymin=100−Ymax and is minimum percent protein remaining).
(In general: A flow cytometer gives signals particle by particle.)

The next experiment concerns the target T2, Helios (Homo sapiens, UniProt Q9UKS7).
T2 construct: endogenous in cells; host or cells: Jurkat cells, CRISPR/Cas9 knock-in of HiBit at the IKZF2 locus
Nature of the experiment: Helios degradation in Jurkat/Helios/HiBit cells (Nano-Glo luminescence). The experiment is classed as cell-based. Conditions: 18 hr, read-out: Helios Jurkat Hibit IC50. The protocol: For Helios, a stable Jurkat cell line was engineered using CRISPR/Cas9 to insert an in-frame HiBit tag into the carboxy-terminal reading frame of the IKZF2 gene. The sequence of human Helios is shown below:
Test compounds were transferred to 1536 well plates using an acoustic dispenser, and Jurkat/Helios/HiBit cells in DMEM/10% FCS were plated at 10,000 cells/well in a final volume of 5 μL. Cells were incubated at 37 C, 95% RH for 18 hr. Luciferase activity was measured by adding 2 μL/well of Nano-Glo reagent (Promega), incubating at RT for 30 min, and reading luminescence on a microtiter plate reader.
as §1
A general note: The HiBiT peptide binds its large partner to form an active luciferase.

T2 sequence (Q9UKS7 whole entry): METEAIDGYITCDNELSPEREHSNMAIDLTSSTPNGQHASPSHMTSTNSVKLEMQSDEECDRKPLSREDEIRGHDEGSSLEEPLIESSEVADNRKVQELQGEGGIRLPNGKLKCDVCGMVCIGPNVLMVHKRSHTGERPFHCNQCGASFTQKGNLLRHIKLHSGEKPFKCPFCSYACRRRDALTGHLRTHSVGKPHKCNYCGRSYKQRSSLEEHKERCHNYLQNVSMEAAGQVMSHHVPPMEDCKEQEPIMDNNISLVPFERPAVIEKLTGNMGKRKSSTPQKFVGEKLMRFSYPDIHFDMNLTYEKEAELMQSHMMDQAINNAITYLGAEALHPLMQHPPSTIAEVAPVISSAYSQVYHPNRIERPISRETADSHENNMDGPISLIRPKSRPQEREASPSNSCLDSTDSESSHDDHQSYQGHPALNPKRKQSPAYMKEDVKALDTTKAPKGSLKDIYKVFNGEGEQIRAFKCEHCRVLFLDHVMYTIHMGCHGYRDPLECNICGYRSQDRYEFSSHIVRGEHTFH
T2 sequence (Q96SW2 whole entry, further chain): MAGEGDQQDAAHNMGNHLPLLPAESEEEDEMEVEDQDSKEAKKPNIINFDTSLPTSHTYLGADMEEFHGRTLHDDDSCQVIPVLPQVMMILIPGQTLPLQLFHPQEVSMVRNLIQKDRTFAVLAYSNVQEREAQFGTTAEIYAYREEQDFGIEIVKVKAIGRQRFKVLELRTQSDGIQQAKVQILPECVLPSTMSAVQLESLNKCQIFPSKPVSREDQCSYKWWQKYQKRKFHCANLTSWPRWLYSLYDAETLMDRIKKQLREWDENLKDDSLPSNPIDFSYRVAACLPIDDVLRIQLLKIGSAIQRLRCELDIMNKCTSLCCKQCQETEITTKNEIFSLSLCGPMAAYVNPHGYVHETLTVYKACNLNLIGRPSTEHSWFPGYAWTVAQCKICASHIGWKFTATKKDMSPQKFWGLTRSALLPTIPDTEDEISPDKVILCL
T2 sequence (Q16531 whole entry partner): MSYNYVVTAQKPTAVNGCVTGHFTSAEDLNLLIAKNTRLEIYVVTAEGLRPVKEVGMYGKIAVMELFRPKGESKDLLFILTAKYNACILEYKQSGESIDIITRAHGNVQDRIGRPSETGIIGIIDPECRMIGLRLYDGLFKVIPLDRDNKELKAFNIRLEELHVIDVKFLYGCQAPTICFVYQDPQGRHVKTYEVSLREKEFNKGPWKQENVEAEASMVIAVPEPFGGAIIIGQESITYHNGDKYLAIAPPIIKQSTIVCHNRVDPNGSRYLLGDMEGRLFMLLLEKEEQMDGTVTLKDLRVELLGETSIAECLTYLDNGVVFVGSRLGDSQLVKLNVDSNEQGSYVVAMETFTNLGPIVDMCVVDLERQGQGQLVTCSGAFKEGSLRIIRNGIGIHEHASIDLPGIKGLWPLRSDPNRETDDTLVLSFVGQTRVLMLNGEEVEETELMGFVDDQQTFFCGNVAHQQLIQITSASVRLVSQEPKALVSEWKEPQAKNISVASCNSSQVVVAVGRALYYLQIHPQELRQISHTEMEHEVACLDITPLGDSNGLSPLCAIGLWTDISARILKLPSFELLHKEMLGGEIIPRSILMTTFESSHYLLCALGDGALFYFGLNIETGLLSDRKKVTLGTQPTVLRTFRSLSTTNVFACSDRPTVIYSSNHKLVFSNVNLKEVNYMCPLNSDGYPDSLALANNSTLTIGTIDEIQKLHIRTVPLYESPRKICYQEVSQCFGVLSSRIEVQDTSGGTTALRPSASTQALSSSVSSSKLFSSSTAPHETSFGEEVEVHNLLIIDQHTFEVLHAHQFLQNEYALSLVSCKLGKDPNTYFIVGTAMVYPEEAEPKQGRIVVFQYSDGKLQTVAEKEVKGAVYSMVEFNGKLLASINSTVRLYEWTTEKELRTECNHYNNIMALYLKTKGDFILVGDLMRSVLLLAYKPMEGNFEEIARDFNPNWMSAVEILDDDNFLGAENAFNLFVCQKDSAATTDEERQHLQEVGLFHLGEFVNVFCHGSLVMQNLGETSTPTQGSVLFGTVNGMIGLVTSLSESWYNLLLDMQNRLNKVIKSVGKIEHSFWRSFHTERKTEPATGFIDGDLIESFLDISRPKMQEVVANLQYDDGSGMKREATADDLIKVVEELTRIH
T1 sequence (Q13422 whole entry Q146F, the tested form may be a part): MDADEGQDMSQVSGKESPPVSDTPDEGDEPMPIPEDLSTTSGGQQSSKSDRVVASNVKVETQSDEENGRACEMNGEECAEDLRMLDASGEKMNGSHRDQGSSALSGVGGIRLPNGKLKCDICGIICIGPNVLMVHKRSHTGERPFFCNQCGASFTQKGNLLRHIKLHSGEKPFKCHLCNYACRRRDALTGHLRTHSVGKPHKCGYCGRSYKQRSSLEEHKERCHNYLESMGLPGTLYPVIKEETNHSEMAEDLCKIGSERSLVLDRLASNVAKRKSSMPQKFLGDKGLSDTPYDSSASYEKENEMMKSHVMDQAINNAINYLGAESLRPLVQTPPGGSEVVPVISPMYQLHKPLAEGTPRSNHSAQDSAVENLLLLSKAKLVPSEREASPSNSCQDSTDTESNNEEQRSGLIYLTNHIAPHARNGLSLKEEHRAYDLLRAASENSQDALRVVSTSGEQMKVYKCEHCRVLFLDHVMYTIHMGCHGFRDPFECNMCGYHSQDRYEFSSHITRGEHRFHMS

On to `CS(=O)(=O)c1ccc(CN2CCC(c3c(F)cc4c(c3F)CN(C3CCC(=O)NC3=O)C4=O)CC2)cc1` (centres unmarked) [Compound 62, 3-(4,6-difluoro-5-(1-(4-(methylsulfonyl)benzyl)piperidin-4-yl)-1-oxoisoindolin-2-yl)piperidine-2,6-dione], for which, in experiment [1], the DC50 was 0.000168 µM and the Dmax amounted to 92.6%. In addition, the DC50 on Helios is no less than 10 µM.

`O=C1CCC(N2Cc3cc(C4CCN(Cc5ccc6c(c5)CCC6)CC4)c(F)cc3C2=O)C(=O)N1` (centres unmarked) [Compound 88, 3-(5-(1-((2,3-dihydro-1H-inden-5-yl)methyl)piperidin-4-yl)-6-fluoro-1-oxoisoindolin-2-yl)piperidine-2,6-dione]: in experiment [1], the DC50 is 0.0031 µM and the Dmax was 91.6%. Further, at Helios, the DC50 was no less than 10 µM.

In the case of `CS(=O)(=O)CCCN1CCC(c2c(F)cc3c(c2F)CN(C2CCC(=O)NC2=O)C3=O)CC1` (centres unmarked) [Compound 121, 3-(4,6-difluoro-5-(1-(3-(methylsulfonyl)propyl)piperidin-4-yl)-1-oxoisoindolin-2-yl)piperidine-2,6-dione], the DC50 in experiment [1] was 0.0204 µM; on Helios it was no less than 10 µM. Also, in experiment [1], the Dmax came to 76.7%.

Take `Cc1ccc(CN2CCC(O)(c3c(F)cc4c(c3F)CN(C3CCC(=O)NC3=O)C4=O)CC2)cc1` (centres unmarked) [Compound 27, 3-(4,6-difluoro-5-(4-hydroxy-1-(4-methylbenzyl)piperidin-4-yl)-1-oxoisoindolin-2-yl)piperidine-2,6-dione]: in experiment [1], the DC50 came to 0.0172 µM and the Dmax is 76.2%.

On to `O=C1CCC(N2Cc3c(cc(F)c(C4(O)CCN(Cc5ccc(C(F)(F)F)cc5F)CC4)c3F)C2=O)C(=O)N1` (centres unmarked) [Compound 20, 3-(4,6-difluoro-5-(1-(2-fluoro-4-(trifluoromethyl)benzyl)-4-hydroxypiperidin-4-yl)-1-oxoisoindolin-2-yl)piperidine-2,6-dione], for which, in experiment [1], the DC50 was found to be 0.0333 µM and the Dmax stood at 77.1%.

Consider `CN(CCN1CCC(O)(c2c(F)cc3c(c2F)CN(C2CCC(=O)NC2=O)C3=O)CC1)Cc1ccccc1` (centres unmarked) [Compound 30, 3-(5-(1-(2-(benzyl(methyl)amino)ethyl)-4-hydroxypiperidin-4-yl)-4,6-difluoro-1-oxoisoindolin-2-yl)piperidine-2,6-dione], for which, in experiment [1], the DC50 was determined as 0.192 µM and the Dmax was 57.8%.

With `O=C1CCC(N2Cc3c(cc(F)c(C4(O)CCN(Cc5cc(F)c(C(F)(F)F)cc5F)CC4)c3F)C2=O)C(=O)N1` (centres unmarked) [Compound 21, 3-(5-(1-(2,5-difluoro-4-(trifluoromethyl)benzyl)-4-hydroxypiperidin-4-yl)-4,6-difluoro-1-oxoisoindolin-2-yl)piperidine-2,6-dione], in experiment [1], the DC50 is 0.0402 µM and the Dmax worked out at 70.7%.

In the case of `O=C1CCC(N2Cc3c(cc(F)c(C4(O)CCN(Cc5ncccc5Br)CC4)c3F)C2=O)C(=O)N1` (centres unmarked) [Compound 24, 3-(5-(1-((3-bromopyridin-2-yl)methyl)-4-hydroxypiperidin-4-yl)-4,6-difluoro-1-oxoisoindolin-2-yl)piperidine-2,6-dione], in experiment [1], the DC50 was determined as 0.101 µM and the Dmax was 57.3%.

Take `COc1ccc(-n2cccn2)c(CN2CCC(O)(c3c(F)cc4c(c3F)CN(C3CCC(=O)NC3=O)C4=O)CC2)c1` (centres unmarked) [Compound 23, 3-(4,6-difluoro-5-(4-hydroxy-1-(5-methoxy-2-(1H-pyrazol-1-yl)benzyl)piperidin-4-yl)-1-oxoisoindolin-2-yl)piperidine-2,6-dione]: in experiment [1], the DC50 is 0.279 µM and the Dmax was found to be 51.6%.

Consider `COc1ccnc(CN2CCC(O)(c3c(F)cc4c(c3F)CN(C3CCC(=O)NC3=O)C4=O)CC2)c1` (centres unmarked) [Compound 25, 3-(4,6-difluoro-5-(4-hydroxy-1-((4-methoxypyridin-2-yl)methyl)piperidin-4-yl)-1-oxoisoindolin-2-yl)piperidine-2,6-dione], for which, in experiment [1], the DC50 turned out to be 0.0482 µM and the Dmax was 67.4%.
